Laboratory results as given in patent US7989420B2, “Smooth muscle relaxation” (New York Medical College, priority 2006, dated 2011).

Experiments:
[1] = humans, factor which limited the doses of ALA, reference (13); cited from earlier work
[2] = system: bovine pulmonary arteries (BPA); assay: Heme content of BPA homogenates (QuantiChrom heme assay); format: cell-based; conditions: organ culture with 100 μM ALA and/or 100 μM Fe
Protocol: Heme was quantified in BPA homogenates using a QuantiChrom heme assay kit purchased from BioAssay Systems, and changes in absorbance were measured in a BIOTEK scanning microplate spectrophotometer. Briefly, segments were homogenized in 20 mM MOPS+sucrose buffer and diluted to approximately 5 mg protein/ml. Homogenates were centrifuged at 2000×g for 5 min, and 50 μl of supernatant obtained were assayed for their heme content based on the manufacture's instructions, employing measurements of changes in absorbance at 400 nm. The protein content of the supernatant was measured with Biorad protein assay kit, and tissue heme levels were reported as nanomoles/mg protein.

[3] = system: bovine bronchi; assay: Protoporphyrin IX fluorescence in organ cultured bovine bronchi; format: cell-based; conditions: organ culture with 0.1 mM ALA
Source text: Determination Changes in Protoporphyrin 1× and Heme Levels. Methods for the detection of protoporphyrin IX tissue fluorescence developed for the detection in cancerous cells with tissue depths of up to several millimeters (27) were adapted for detecting changes in the endogenous levels of protoporphyrin IX in BPA rings which were organ cultured with ALA. When excited with light in the regions of 505 and 540 nm, protoporphyrin IX has an emission in the region of 635 nm. […] Increases in protoporphyrin IX were measured using an excitation wavelength of 528±20 nm and emission of 620±40 nm in intact vessels. Ring segments of approximately equal size (˜4 mm in diameter and length) were centered on the bottom of the ˜6 mm diameter wells of a 96 well microplate with 200 μl of Krebs containing with 10 mM Hepes buffer (pH 7.4), and the fluorescence was measured from the bottom surface of the plate using BIOTEK fluorescent microplate reader (Model FLx800i). Data are reported in the arbitrary fluorescence units measured (AU), after subtraction of the low levels of background fluorescence observed in the absence of BPA.
Bovine bronchi were isolated from the same lungs used for pulmonary arteries, and studied for changes in protoporphyrin IX fluorescence and force under the same conditions as bovine pulmonary arteries described above. […]

In the case of `NCC(=O)CCC(=O)O` [ALA, δ-aminolevulinic acid], the “systemic and pulmonary artery pressure” value [1] is given as “reduction in systemic and pulmonary artery pressure”, the BPA heme levels [2] is given as “did not reach statistical significance” and the “protoporphyrin IX fluorescence” value [3] is given as “time-dependent increase in protoporphyrin IX fluorescence”.
